The results in this text go back to ChEMBL document CHEMBL3585275, “Glycosyl hydroperoxides: a new class of potential antimalarial agents” (Bioorg Med Chem, 2015).

In brackets after ≈: the same amount, converted by molar mass.

The subject of data set [1] is Plasmodium falciparum. Description: Antimalarial activity against chloroquine-sensitive Plasmodium falciparum D10 infected in human type A-positive red blood cells assessed as parasite growth inhibition after 72 hrs by lactate dehydrogenase assay. Type of data set: functional, organism-based. Conditions: D10, 72 h; call rule not given here.
The subject of data set [2] is Plasmodium falciparum. Description: Antimalarial activity against chloroquine-resistant Plasmodium falciparum W2 infected in human type A-positive red blood cells assessed as parasite growth inhibition after 72 hrs by lactate dehydrogenase assay. Format: functional, organism-based. Conditions: W2, 72 h.
Data set [3] in a line: Inhibition of hemin crystallization at 0.25 to 10 mol equiv after 18 hrs by spectrophotometric analysis. Type of data set: physicochemical.

Usually IC50 stands for the concentration needed to halve the response being measured. For the molecule `CCCCCCCCCCCCCCCCCC(=O)O[C@@H]1C[C@@H](OO)O[C@H]1[C@@H](O)CO`, the half-inhibitory concentration (IC50) in data set [1] and in data set [2] was more than 5 µg/mL each time. Besides, the “inhibition (INH)” value in data set [3] is on record as “Not Active”.
`CCCCCCCO[C@H]1C[C@@H](OO)OC[C@H]1OCCCCCCC`: the values for the IC50 in data set [1] and in data set [2] were 1.42 µg/mL (≈ 4.09 µM) and 1.69 µg/mL (≈ 4.88 µM), respectively. Moreover, the “inhibition (INH)” value in data set [3] is “Active”.
With `C[C@@H]1CC[C@H]2[C@@H](C)C(=O)O[C@@H]3O[C@@]4(C)CC[C@@H]1[C@]32OO4` [ARTEMISININ], the IC50 in data set [1] was found to be 0.0121 µg/mL (≈ 0.043 µM); in data set [2] it was 0.00824 µg/mL (≈ 0.0292 µM).
`CCCCCCCCCCCCOC[C@H]1O[C@H](OO)C[C@@H](OCCCCCCCCCCCC)[C@H]1OCCCCCCCCCCCC`: the IC50 in data set [1] and in data set [2] was more than 5 µg/mL each time. Moreover, the “inhibition (INH)” value in data set [3] is recorded as “Not Active”.
As for `CCN(CC)CCCC(C)Nc1ccnc2cc(Cl)ccc12` (stereo not drawn) [CHLOROQUINE], in data set [3], the “inhibition (INH)” value is “Active”.
Regarding `CCCCCCCCCCCCCCCCCCOC[C@H]1O[C@H](OO)C[C@@H](OCCCCCCCCCCCCCCCCCC)[C@H]1OCCCCCCCCCCCCCCCCCC`, the concentration for half-maximal inhibition (IC50) in data set [1] and in data set [2] was more than 5 µg/mL in each case. Further, the “inhibition (INH)” value in data set [3] is given as “Not Active”.
`CCCCCCCOC[C@H]1O[C@H](OO)C[C@@H](OCCCCCCC)[C@H]1OCCCCCCC`: the IC50 in data set [1] and in data set [2] was more than 5 µg/mL in each case. Also, the “inhibition (INH)” value in data set [3] is “Not Active”.
